Converted amounts (≈) assume the structure as drawn. The source made the active and inactive calls. No cut-off for these calls is given here.
Experiments:
[1] = AUC (0 to 24 hrs) in rat at 60 mg/kg qd; assay type: ADME, organism-based; design: dose 60 mg/kg; conditions: in vivo
[2] = Clearance in mouse at 3 mg/kg, iv; assay type: ADME, organism-based; conditions: in vivo
[3] = Plasma protein binding in human assessed as fraction unbound; assay type: ADME, cell-free
[4] = Oral bioavailability in rat at 1 mg/kg; assay type: ADME, organism-based; conditions: in vivo
[5] = Solubility of the compound in FaSSIF at pH 6.5; assay type: ADME
[6] = Tmax in rat at 300 mg/kg qd; assay type: ADME, organism-based; conditions: in vivo
Mus musculus [7] = species on record: Mus musculus; assay: Anti-hyperglycemic activity in GPR40 knockout mouse assessed as reduction in plasma glucose level by OGTT analysis; assay type: functional, organism-based
[8] = Solubility of the compound in FeSSIF at pH 5; assay type: ADME
Mus musculus [9] = species on record: Mus musculus; assay: Anti-hyperglycemic activity in wild type mouse assessed as reduction in plasma glucose level by OGTT analysis; assay type: functional, organism-based
[10] = Cmax in rat at 60 mg/kg qd; assay type: ADME, organism-based; design: dose 60 mg/kg; conditions: in vivo
[11] = Cmax in rat at 300 mg/kg qd; assay type: ADME, organism-based; design: dose 300 mg/kg; conditions: in vivo
[12] = Clearance in rat at 3 mg/kg, iv; assay type: ADME, organism-based; conditions: in vivo
Rattus norvegicus [13] = assay: Anti-hyperglycemic activity against Sprague-Dawley rat assessed as reduction in plasma glucose AUC at 0.3 mg/kg, po measured for 20 to 120 mins in presence of BMS-538305 by OGTT analysis; assay type: functional; design: scale not given: the % may be the effect or the level left; conditions: time 20-120 min
[14] = Metabolic stability in mouse liver microsome assessed as parent compound remaining after 10 mins; assay type: ADME; conditions: liver microsomes, read-out: Stability
[15] = AUC (0 to 24 hrs) in rat at 300 mg/kg qd; assay type: ADME, organism-based; design: dose 300 mg/kg; conditions: in vivo
[16] = biological target: T1, Free fatty acid receptor 1 (Homo sapiens, UniProt O14842); assay: Positive allosteric modulation of human GPR40 by calcium based FLIPR analysis
T1 sequence (O14842 whole entry): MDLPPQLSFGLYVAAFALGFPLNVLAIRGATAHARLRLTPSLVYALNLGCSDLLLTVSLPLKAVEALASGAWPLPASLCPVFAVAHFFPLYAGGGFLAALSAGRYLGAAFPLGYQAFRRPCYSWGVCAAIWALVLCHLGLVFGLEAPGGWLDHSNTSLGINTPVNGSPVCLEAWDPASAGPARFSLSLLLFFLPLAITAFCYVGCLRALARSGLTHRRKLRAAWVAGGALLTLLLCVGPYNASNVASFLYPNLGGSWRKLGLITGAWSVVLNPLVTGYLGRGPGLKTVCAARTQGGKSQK

[17] = Half life in rat at 3 mg/kg, iv; assay type: ADME, organism-based; conditions: in vivo
Cytochrome P450 2C8 = biological target: T2, Cytochrome P450 2C8 (Homo sapiens, UniProt P10632); assay: Inhibition of CYP2C8 in human liver microsomes; assay type: ADME, Microsome
T2 sequence (P10632 whole entry): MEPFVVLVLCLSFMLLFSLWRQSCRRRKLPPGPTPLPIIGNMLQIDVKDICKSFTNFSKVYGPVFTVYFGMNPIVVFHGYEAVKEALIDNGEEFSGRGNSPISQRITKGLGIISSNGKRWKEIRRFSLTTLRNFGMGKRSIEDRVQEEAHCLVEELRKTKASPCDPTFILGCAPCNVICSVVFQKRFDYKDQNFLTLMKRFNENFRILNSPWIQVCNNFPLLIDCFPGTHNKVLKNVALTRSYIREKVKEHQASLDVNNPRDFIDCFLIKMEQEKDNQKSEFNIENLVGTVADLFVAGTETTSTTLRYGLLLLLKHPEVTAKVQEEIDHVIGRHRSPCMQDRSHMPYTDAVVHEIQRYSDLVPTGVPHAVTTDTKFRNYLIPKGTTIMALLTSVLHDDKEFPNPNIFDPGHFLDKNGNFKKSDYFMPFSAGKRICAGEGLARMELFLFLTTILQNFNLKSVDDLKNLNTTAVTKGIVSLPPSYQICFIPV

[18] = biological target: T1, Free fatty acid receptor 1; assay: Positive allosteric modulation of human GPR40 expressed in HEK293 cells assessed as cAMP accumulation; assay type: cell-based
[19] = biological target: Free fatty acid receptor 1 (Mus musculus, UniProt Q76JU9); assay: Positive allosteric modulation of mouse GPR40
Chain of Free fatty acid receptor 1 (Mus musculus, UniProt Q76JU9) (Q76JU9 whole entry): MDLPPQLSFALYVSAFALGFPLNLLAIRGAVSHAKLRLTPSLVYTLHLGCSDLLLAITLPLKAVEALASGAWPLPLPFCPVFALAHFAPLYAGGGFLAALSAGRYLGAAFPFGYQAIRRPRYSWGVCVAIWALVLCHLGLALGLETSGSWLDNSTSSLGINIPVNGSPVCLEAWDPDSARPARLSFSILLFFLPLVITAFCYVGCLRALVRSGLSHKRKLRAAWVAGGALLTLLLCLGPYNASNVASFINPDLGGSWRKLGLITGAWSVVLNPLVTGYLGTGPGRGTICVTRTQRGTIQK

Rattus norvegicus [20] = assay: Anti-hyperglycemic activity against Sprague-Dawley rat assessed as reduction in plasma glucose AUC at 0.3 mg/kg, po measured for 20 to 120 mins by OGTT analysis; assay type: functional, organism-based; conditions: time lower 20.0 min, time upper […]
Cytochrome P450 2D6 = Cytochrome P450 2D6 (Homo sapiens, UniProt P10635); assay: Inhibition of CYP2D6 in human liver microsomes; assay type: ADME, Microsome
Chain of Cytochrome P450 2D6 (P10635 whole entry): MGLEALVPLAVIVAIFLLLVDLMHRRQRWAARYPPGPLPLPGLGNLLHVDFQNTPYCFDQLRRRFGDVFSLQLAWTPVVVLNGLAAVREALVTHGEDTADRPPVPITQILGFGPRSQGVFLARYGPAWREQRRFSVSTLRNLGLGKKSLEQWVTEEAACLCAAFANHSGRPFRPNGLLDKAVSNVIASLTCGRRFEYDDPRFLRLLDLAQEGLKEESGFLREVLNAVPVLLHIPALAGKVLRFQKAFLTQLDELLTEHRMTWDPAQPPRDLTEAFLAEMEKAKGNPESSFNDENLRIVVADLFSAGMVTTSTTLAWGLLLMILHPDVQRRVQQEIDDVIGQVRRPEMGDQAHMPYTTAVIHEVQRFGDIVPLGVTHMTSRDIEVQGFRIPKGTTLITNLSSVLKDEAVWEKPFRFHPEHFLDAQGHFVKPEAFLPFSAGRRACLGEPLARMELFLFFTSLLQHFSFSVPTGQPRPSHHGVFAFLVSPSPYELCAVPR

[21] = Tmax in rat at 12 mg/kg qd; assay type: ADME, organism-based; conditions: in vivo
[22] = Metabolic stability in human liver microsome assessed as parent compound remaining after 10 mins; assay type: ADME; conditions: liver microsomes, read-out: Stability
[23] = Volume of distribution at steady state in mouse at 3 mg/kg, iv; assay type: ADME, organism-based; conditions: in vivo, read-out: Vdss
[24] = Half life in mouse at 3 mg/kg, iv; assay type: ADME, organism-based; conditions: in vivo
[25] = AUC (0 to 24 hrs) in rat at 12 mg/kg qd; assay type: ADME, organism-based; design: dose 12 mg/kg; conditions: in vivo
[26] = AUC (0 to 24 hrs) in rat at 100 mg/kg, po qd; assay type: ADME, organism-based; design: dose 100 mg/kg, route po; conditions: in vivo
Cytochrome P450 2C9 = Cytochrome P450 2C9 (Homo sapiens, UniProt P11712); assay: Inhibition of CYP2C9 in human liver microsomes; assay type: ADME, Microsome
Chain of Cytochrome P450 2C9 (P11712 whole entry): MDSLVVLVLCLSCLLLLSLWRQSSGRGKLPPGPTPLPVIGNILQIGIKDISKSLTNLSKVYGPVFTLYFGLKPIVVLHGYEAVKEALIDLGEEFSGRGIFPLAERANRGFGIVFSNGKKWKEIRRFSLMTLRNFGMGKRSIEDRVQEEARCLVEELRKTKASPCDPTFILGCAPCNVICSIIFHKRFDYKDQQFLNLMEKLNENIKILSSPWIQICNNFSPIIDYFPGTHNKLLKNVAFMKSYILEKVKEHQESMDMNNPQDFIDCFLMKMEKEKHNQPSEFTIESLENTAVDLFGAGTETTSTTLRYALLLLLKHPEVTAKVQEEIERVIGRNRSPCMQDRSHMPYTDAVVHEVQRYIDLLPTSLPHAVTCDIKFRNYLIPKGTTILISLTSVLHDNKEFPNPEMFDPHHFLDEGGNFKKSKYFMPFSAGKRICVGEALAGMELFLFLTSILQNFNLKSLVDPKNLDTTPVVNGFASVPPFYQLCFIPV

[27] = Lipophilicity, logD of compound; assay type: physicochemical; conditions: octanol/water
[28] = Volume of distribution at steady state in rat at 3 mg/kg, iv; assay type: ADME, organism-based; conditions: in vivo, read-out: Vdss
[29] = Permeability of compound across apical to basolateral side in dog MDCK cells; assay type: ADME, cell-based, Canis lupus familiaris; conditions: read-out: permeability
[30] = Tmax in rat at 60 mg/kg qd; assay type: ADME, organism-based; conditions: in vivo
[31] = Total AUC in mouse at 1 mg/kg, po; assay type: ADME, organism-based; design: dose 1 mg/kg, route po; conditions: in vivo
[32] = Cmax in mouse at 1 mg/kg; assay type: ADME, organism-based; design: dose 1 mg/kg; conditions: in vivo
[33] = Cmax in rat at 1 mg/kg, po; assay type: ADME, organism-based; design: dose 1 mg/kg, route po; conditions: in vivo
[34] = Toxicity in rat assessed as NOAEL by measuring AUC (0 to 24 hrs) measured for 28 days; conditions: in vivo, time 28 day
[35] = Toxicity in rat assessed as vacuolation in pancrease at 100 mg/kg measured for 28 days; assay type: organism-based; conditions: in vivo, time 28 day
[36] = Toxicity in rat assessed as reduction in cell size at 100 mg/kg measured for 28 days; assay type: organism-based; conditions: in vivo, time 28 day
[37] = Metabolic stability in rat liver microsome assessed as parent compound remaining after 10 mins; assay type: ADME; conditions: liver microsomes, read-out: Stability
[38] = Solubility in phosphate buffer at pH 6.5; assay type: physicochemical
Rattus norvegicus [39] = assay: Hyperglycemic activity in Sprague-Dawley rat assessed as effect on blood glucose level at 30 to 100 mg/kg, qd by glucometer; assay type: functional, organism-based; conditions: dose 30-100 mg/kg
Cytochrome P450 3A4 = Cytochrome P450 3A4 (Homo sapiens, UniProt P08684); assay: Inhibition of CYP3A4 in human liver microsomes; assay type: ADME, Microsome
Chain of Cytochrome P450 3A4 (P08684 whole entry): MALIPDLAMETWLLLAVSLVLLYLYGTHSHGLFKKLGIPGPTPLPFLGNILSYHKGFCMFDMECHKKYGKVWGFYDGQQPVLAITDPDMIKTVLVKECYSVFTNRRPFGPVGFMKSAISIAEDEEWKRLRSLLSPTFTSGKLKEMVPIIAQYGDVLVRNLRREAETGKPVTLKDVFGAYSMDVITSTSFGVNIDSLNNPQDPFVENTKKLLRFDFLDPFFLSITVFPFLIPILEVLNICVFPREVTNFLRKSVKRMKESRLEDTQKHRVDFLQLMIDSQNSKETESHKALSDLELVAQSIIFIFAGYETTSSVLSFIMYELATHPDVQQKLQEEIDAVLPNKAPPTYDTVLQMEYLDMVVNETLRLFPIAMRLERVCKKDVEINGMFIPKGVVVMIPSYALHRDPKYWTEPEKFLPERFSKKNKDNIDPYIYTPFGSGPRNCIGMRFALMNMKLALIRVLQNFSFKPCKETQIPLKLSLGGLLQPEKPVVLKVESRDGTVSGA

Cytochrome P450 2B6 = biological target: T3, Cytochrome P450 2B6 (Homo sapiens, UniProt P20813); assay: Inhibition of CYP2B6 in human liver microsomes; assay type: ADME, Microsome
T3 sequence (P20813 whole entry): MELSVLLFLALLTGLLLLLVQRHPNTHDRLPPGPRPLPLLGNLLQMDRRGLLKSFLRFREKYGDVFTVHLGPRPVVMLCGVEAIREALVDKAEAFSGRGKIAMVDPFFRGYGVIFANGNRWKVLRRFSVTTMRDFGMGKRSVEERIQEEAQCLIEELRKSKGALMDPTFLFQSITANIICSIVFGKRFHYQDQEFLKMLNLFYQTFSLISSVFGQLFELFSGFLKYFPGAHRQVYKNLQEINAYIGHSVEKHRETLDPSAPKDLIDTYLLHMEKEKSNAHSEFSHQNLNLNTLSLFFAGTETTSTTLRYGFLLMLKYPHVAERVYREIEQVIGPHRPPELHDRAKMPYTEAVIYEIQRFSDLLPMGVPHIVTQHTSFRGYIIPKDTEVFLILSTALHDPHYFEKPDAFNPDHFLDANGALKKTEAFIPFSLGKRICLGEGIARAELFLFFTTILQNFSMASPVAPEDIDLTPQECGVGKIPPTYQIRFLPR

[40] = Oral bioavailability in mouse at 1 mg/kg; assay type: ADME, organism-based; conditions: in vivo
Cytochrome P450 2C19 = Cytochrome P450 2C19 (Homo sapiens, UniProt P33261); assay: Inhibition of CYP2C19 in human liver microsomes; assay type: ADME, Microsome
Chain of Cytochrome P450 2C19 (P33261 whole entry): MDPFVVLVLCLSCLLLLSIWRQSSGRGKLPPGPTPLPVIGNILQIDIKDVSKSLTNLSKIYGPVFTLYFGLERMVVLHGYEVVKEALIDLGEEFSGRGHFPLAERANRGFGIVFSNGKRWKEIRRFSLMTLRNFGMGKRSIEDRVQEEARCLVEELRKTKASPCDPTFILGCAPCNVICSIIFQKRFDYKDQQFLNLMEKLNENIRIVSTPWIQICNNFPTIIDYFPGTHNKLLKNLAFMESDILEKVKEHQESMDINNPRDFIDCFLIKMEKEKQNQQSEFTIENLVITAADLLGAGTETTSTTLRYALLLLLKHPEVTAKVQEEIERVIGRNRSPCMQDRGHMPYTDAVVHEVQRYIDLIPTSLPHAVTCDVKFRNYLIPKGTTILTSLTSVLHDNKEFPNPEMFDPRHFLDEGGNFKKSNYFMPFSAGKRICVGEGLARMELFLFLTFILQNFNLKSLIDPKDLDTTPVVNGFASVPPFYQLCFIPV

[41] = Toxicity in rat assessed as NOAEL at 100 mg/kg measured for 28 days; assay type: organism-based; conditions: in vivo, time 28 day
[42] = AUC (0-7hrs) in mouse at 1 mg/kg; assay type: ADME, organism-based; design: dose 1 mg/kg; conditions: in vivo
[43] = Plasma protein binding in mouse assessed as fraction unbound; assay type: ADME, cell-free
[44] = Total AUC in rat at 1 mg/kg, po; assay type: ADME, organism-based; design: dose 1 mg/kg, route po; conditions: in vivo
[45] = Cmax in rat at 12 mg/kg qd; assay type: ADME, organism-based; design: dose 12 mg/kg; conditions: in vivo
[46] = Cmax in mouse at 1 mg/kg, po; assay type: ADME, organism-based; design: dose 1 mg/kg, route po; conditions: in vivo
Rattus norvegicus [47] = assay: Anti-hyperglycemic activity against Sprague-Dawley rat assessed as reduction in plasma glucose AUC at 0.3 mg/kg, po measured at 3 hrs in presence of BMS-538305 by OGTT analysis; assay type: functional; design: scale not given: the % may be the effect or the level left
Rattus norvegicus [48] = assay: Anti-hyperglycemic activity against Sprague-Dawley rat assessed as reduction in plasma glucose level at 3 mg/kg, po measured for 20 to 120 mins by OGTT analysis; assay type: functional, organism-based; conditions: time lower 20.0 min, time upper […]
[49] = Toxicity in rat assessed as reduction in cell number at 100 mg/kg measured for 28 days; assay type: organism-based; conditions: in vivo, time 28 day
[50] = Solubility of the compound in FeSSIF at pH 6.5; assay type: ADME
[51] = Toxicity in rat assessed as change in spontaneous locomotor activity; conditions: in vivo
[52] = Toxicity in rat assessed as change in heart rate; conditions: in vivo
[53] = Toxicity in Sprague-Dawley rat assessed as hypoglycemia at 80 mg/kg, po measured for 24 hrs by glucometer analysis; assay type: organism-based; conditions: in vivo
[54] = biological target: T1, Free fatty acid receptor 1; assay: Positive allosteric modulation of human GPR40 expressed in HEK293 cells assessed as maximum efficacy relative to control; assay type: cell-based; conditions: filed as positive allosteric modulator
[55] = Toxicity in rat; conditions: in vivo

Structure (SMILES): COCCCO[C@H]1CN(c2ccc(O[C@@H]3CCN(c4cc(OC)ncc4Cl)C[C@H]3C)cc2)[C@@H](CC(=O)O)[C@@H]1C
- AUC [1]: 534 µM·h
- clearance [2]: 7.9 mL/min/kg
- Fu [3]: < 0.1%
- bioavailability [4]: 100%
- solubility [5]: 239 µg/mL (≈ 425 µM)
- Tmax [6]: 2 h
- Activity (Mus musculus [7]): inactive
- solubility [8]: 383 µg/mL (≈ 681 µM)
- Activity (Mus musculus [9]): Active
- Cmax [10]: 49 µM
- Cmax [11]: 151 µM
- clearance [12]: 5.9 mL/min/kg
- Activity (Rattus norvegicus [13]): 26%
- remaining at 10 min [14]: 79%
- AUC [15]: 3150 µM·h
- EC50 [16]: 0.049 µM
- half-life [17]: 3.6 h
- IC50 (Cytochrome P450 2C8): 8.3 µM
- EC50 [18]: 1.8 µM
- EC50 [19]: 0.014 µM
- Activity (Rattus norvegicus [20]): inactive
- IC50 (Cytochrome P450 2D6): 40 µM
- Tmax [21]: 2 h
- remaining at 10 min [22]: 100%
- Vd [23]: 1.4 L/kg
- half-life [24]: 3.4 h
- AUC [25]: 84 µM·h
- AUC [26]: 1480 µM·h
- IC50 (Cytochrome P450 2C9): 34 µM
- logD [27]: 1.32
- Vd [28]: 1.1 L/kg
- Papp A→B [29]: 24.3 ×10⁻⁶ cm/s
- Tmax [30]: 2 h
- AUC [31]: 4.4 µM·h
- Cmax [32]: 2.8 µM
- Cmax [33]: 1.6 µM
- AUC at […] [34]: 53 µM·h
- Activity [35]: Toxic
- Activity [36]: Non-Toxic
- remaining at 10 min [37]: 77%
- solubility [38]: 28 µg/mL (≈ 49.8 µM)
- Activity (Rattus norvegicus [39]): inactive
- IC50 (Cytochrome P450 3A4): 40 µM
- IC50 (Cytochrome P450 2B6): 29 µM
- bioavailability [40]: 100%
- IC50 (Cytochrome P450 2C19): 40 µM
- Activity [41]: Non-Toxic
- AUC(0-t) [42]: 4.4 µM·h
- Fu [43]: 0.9%
- AUC [44]: 2.2 µM·h
- Cmax [45]: 11 µM
- Cmax [46]: 2.8 µM
- Activity (Rattus norvegicus [47]): 148%
- Activity (Rattus norvegicus [48]): Active
- Activity [49]: Non-Toxic
- solubility [50]: 1300 µg/mL (≈ 2320 µM)

Structure (SMILES): COc1ccc(F)c(-c2ccc(Cc3ccc(N4C[C@H](C(F)(F)F)C[C@@H]4CC(=O)O)cc3)c(C)c2)c1
- Activity [51]: Non-Toxic
- Activity [52]: Non-Toxic
- Activity [53]: Non-Toxic
- Emax [54]: 97%
- Activity [55]: Toxic

Reference: ChEMBL document CHEMBL5257080, “Optimization of physicochemical properties of pyrrolidine GPR40 AgoPAMs results in a differentiated profile with improved pharmacokinetics and reduced off-target activities” (Bioorg Med Chem, 2023)
